Test results reported in patent US20230381213A1, “SYNTHESIS AND USES OF GINSENOSIDE COMPOUND K DERIVATIVES” (The University of Hong Kong, priority 2022, published 2023).
Like-named read-outs stand apart in the source and are kept apart here.

Assays:
[1] = system: NCI-H460 cells; experiment: MTT cytotoxicity in NCI-H460 cells
[2] = system: NCI-H460 xenografts; experiment: NCI-H460 xenografts in nude mice; format: in vivo; conditions: 5 mg/kg intravenous once every two days; for Tumor volume: versus solvent control
[3] = system: A549 cells; experiment: Cytotoxicity in A549 cells; format: cell-based; conditions: Homo sapiens
[4] = system: A549 cells; experiment: Cell viability with phosphatidylglycerol (PG) supplement, NBB assay; format: cell-based; conditions: 24 hours, PG supplemented DMEM versus DMEM
Experimental: FIG. 15C is a bar chart of the cell viability of A549 after treatment with 100 μM of CK or 12.5 μM of CKD-4 for 24 hours in DMEM or phosphatidylglycerol (PG) supplemented DMEM as mean±SD, ***P≤0.001.
(§1) PRELID3b and PRELID1 are PRELI proteins. These proteins and TRIAP1 locate within the inter membrane space responsible for the regulation of phospholipid metabolism. Therefore, a cardiolipin probe is used to measure levels of mitochondrial cardiolipin after drug treatment. […] A decreased level of cardiolipin in PRELI or TRIAP1 depleted cells appears to accelerate the release of cytochrome c, rendering cells vulnerable to apoptosis. […] Cardiolipin is synthesized by a series of steps with phosphatidylglycerol (PG) as the precursor of last step catalyzing by cardiolipin synthase.

[5] = target: T1, PRELID3b (Homo sapiens, UniProt Q9Y3B1); experiment: Cellular thermal shift assay by western blotting, PRELID3b; format: cell-based; conditions: A549 cells, one hour
T1 construct: endogenous in cells; host or cells: A549
T1 sequence (Q9Y3B1 whole entry): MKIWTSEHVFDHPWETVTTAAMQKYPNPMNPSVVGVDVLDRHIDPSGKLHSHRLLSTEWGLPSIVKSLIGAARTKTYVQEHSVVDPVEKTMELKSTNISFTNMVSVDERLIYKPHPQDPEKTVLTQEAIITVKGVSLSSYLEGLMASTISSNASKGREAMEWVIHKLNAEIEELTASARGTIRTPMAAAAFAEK
T1 sequence (O43715 whole entry partner): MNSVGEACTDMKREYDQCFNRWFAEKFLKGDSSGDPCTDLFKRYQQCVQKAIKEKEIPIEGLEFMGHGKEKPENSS
Experimental: A549 cells were treated with 50 μM of CK or 15 uM of CKD-4 for one hour, where eight lysate aliquots were heated to indicated temperature.
(§2) Most probable target candidate proteins are ranked in PISA based on the absolute value of log2 ΔSm of drug relative to DMSO treatment and PTM ranking are based on the log2 fold change of drug over DMSO treatment. The rankings of two experiments are summed to provide a list of candidate drug targets.

[6] = system: CCD-19Lu lung normal fibroblast; experiment: Cytotoxicity in lung normal fibroblast CCD-19Lu; format: cell-based; conditions: Homo sapiens
[7] = system: HepG2 cells; experiment: MTT cytotoxicity in HepG2 cells; format: cell-based; conditions: Homo sapiens; HepG2 liver cancer, 72 hours
[8] = target: MBP (Escherichia coli, UniProt P0AEX9); experiment: Biolayer interferometry with his tag MBP (control); format: binding; conditions: various concentrations
Experimental: (§3) The sensor used is coated with Ni NTA so that proteins with the hexa-histidine tag could be immobilized on the sensor. After immobilization with protein, the sensor was incubated with the compounds at different concentrations in an ascending order. Both the stoichiometry of CK or CKD-4 with PRELID3b is in a 1:1 ratio but the kinetic modes for the two cases are different. […] The result is consistent with the docking analysis showing that the interaction between CKD-4 and PRELID3b is stronger than with CK.

[9] = target: T2, PRELID1 (Homo sapiens, UniProt Q9Y255); experiment: Proteome integral solubility alteration (PISA) in cells; format: cell-based; conditions: in cell
T2 construct: endogenous in cells; host or cells: A549
T2 sequence (Q9Y255 whole entry): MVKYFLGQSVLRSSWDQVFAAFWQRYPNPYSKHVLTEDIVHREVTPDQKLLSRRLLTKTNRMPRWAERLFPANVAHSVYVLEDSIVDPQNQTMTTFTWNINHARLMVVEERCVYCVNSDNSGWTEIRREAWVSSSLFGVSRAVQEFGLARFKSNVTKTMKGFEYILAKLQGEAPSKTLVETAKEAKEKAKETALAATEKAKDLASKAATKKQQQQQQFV
T2 sequence (O43715 whole entry partner): as the sequence (O43715 whole entry partner) above
From the text: Two label free chemical proteomics, proteome integral […] alteration assay (PISA) and ProtargetMiner (PTM) are alternative strategies to study CK and CKD-4. PISA is a turbo-charged method development of thermal proteome profiling (TPP) which based on the principle that ligand induced stability of proteins is observed upon a temperature increase. PTM is used to contrast the proteome signature of CK and CKD-4 against the PTM database to reveal their mode of action. FIGS. 9A and 9B provide an overview of the PISA results in cells with CK and CKD-4, where data is shown as a volcano plot with the X-axis as log2 ΔSm of drug over DMSO treatment and the Y-axis as log 10 p-value. In FIGS. 10 and 11 the PTM result of CK and CKD-4 in cells are compared to 9 other anti-cancer drugs in A549 cells in the database and is plotted for OPLS-DA analysis.
as §2

[10] = system: Hela cells; experiment: MTT cytotoxicity in Hela cells; format: cell-based; conditions: Homo sapiens; Hela cervical cancer, 72 hours
[11] = system: NCI-H1650 cells; experiment: Cytotoxicity in NCI-H1650 cells; format: cell-based; conditions: Homo sapiens
[12] = system: MS 1 cells; experiment: Tube formation (angiogenesis) on Matrigel; format: cell-based; conditions: 4 hours
Experimental: (§4) The effect of CK and CKD-4 on cell apoptosis and cell death is indicated by A549 cells treated with 60 μM of CK and 20 μM of CKD-4 for 48 hours that are analyzed by flow cytometry. […] Angiogenesis is another hallmark of cancer which plays an important role in metastasis and tumor growth. […] Cancer stem cells, owing to their ability of self-renewal, have become the major reason for relapse of tumor and poor prognosis. The efficacy of CKD-4 in lung cancer patient derived organoid is indicated using CellTiterGlo assay, where three state of the art clinical anti-cancer drugs, carboplatin, cisplatin, and paclitaxel are a positive control. The dosage of these three drugs is sufficient to trigger a 30% inhibition of cell viability. FIG. 6 and FIG. 7 indicated less than 30% suppression of cell viability is observed with treatment of 20 μM CKD-4.

[13] = system: cardiolipin in A549 cells; experiment: Mitochondrial cardiolipin quantification with cardiolipin probe; format: cell-based; conditions: 24-hour treatment
Experimental: FIG. 15A is a bar chart of the CK and CKD-4 induced apoptosis by quantification of cardiolipin in mitochondrial after treatment with CK or CKD-4 for 24 hours in A549 cells as mean±SD, **, P≤0.01, *, P≤0.05.
as §1

[14] = system: MHCC97-L cells; experiment: MTT cytotoxicity in MHCC97-L cells; format: cell-based; conditions: MHCC97L; MHCC97-L liver cancer, 72 hours
[15] = system: A549 cells; experiment: Apoptosis by flow cytometry (Annexin V-FITC / propidium iodide); format: cell-based; conditions: 48 hours
Experimental: as §4

[16] = system: cytochrome c release in A549 cells; experiment: Cytochrome c in cytosol fractions, western blotting; format: cell-based; conditions: for Level of cytochrome c in cytosol: 24-hour treatment; for Cytochrome c release with PG in medium: 24 hours, with PG versus without PG
From the text: as §1

[17] = system: SW480 cells; experiment: MTT cytotoxicity in SW480 cells; format: cell-based; conditions: Homo sapiens; SW480 colon cancer, 72 hours
[18] = target: T2, PRELID1; experiment: Cellular thermal shift assay by western blotting, PRELID1; format: cell-based; conditions: A549 cells, one hour
Experimental: A549 cells were treated with 50 μM of CK or 15 μM of CKD-4 for one hour, where eight lysate aliquots were heated to indicated temperature.
as §2

[19] = target: T3, PRELID3b-TRIAP1-MBP (Homo sapiens, UniProt Q9Y3B1); experiment: Biolayer interferometry with his tag PRELID3b-TRIAP1-MBP; format: binding; conditions: for Kd: steady-state analysis, 1:1
T3 construct: made in house
T3 sequence (Q9Y3B1 whole entry): as the sequence (Q9Y3B1 whole entry) above
From the text: To validate the docking analysis, biolayer interferometry (BLI) was employed to measure the interaction between PRELID3b and CK or CKD-4. The recombinant protein was purified by co-expression of PRELID3b with a hexa-histidine tag and the p53 regulated protein, TRIAP1 conjugated with maltose binding protein (MBP). The reported crystal structure of RELID3b is in complex with TRIAP1 and they form as a swapped dimer. PRELID3b is intrinsically unstable in the absence of TRIAP1 and easily degraded by mitochondrial protease. Maltose binding protein (MBP) is a necessary component to improve the solubility of the whole protein complex.
as §3

[20] = Solubility; format: physicochemical; conditions: even in dimethyl sulfoxide (DMSO)
[21] = system: NCI-H460 cells
[22] = system: lung cancer patient derived organoid; experiment: Lung cancer patient derived organoid viability, CellTiterGlo; format: cell-based; conditions: 72 hours
Experimental: as §4

[23] = system: A549 cells; format: in vitro ADME; conditions: human, 10 μM
From the text: To explore the stability of CKD-4, the amount of CK in CKD-4 treated A549 cells was also quantified.

[24] = Homo sapiens, NCI-H460, 24 h, read-out: IC50 24 h
[25] = Homo sapiens, NCI-H460, 48 h, read-out: Cytotoxicity IC50
[26] = Homo sapiens, NCI-H460, 72 h, read-out: IC50 72 h
[27] = A549, 24 h, read-out: IC50 24 h
[28] = A549, 48 h, read-out: IC50 48 h
[29] = A549, 72 h, read-out: IC50 72 h
[30] = NCI-H1650, 24 h, read-out: IC50 24 h
[31] = NCI-H1650, 48 h, read-out: IC50 48 h
[32] = NCI-H1650, 72 h, read-out: IC50 72 h

Structure (SMILES)	IC50 [1, 24]	IC50 [1, 25]	IC50 [1, 26]	Body weight [2]	Tumor volume [2]	IC50 [3, 27]	IC50 [3, 28]	IC50 [3, 29]	IC50 ([6]; 24 h, read-out: IC50 24 h)	IC50 ([6]; 48 h, read-out: IC50 48 h)	IC50 ([6]; 72 h, read-out: IC50 72 h)	Response with MBP [8]	PRELID1 stability in PISA [9]	IC50 [11, 30]	IC50 [11, 31]	IC50 [11, 32]	Amount of mitochondrial cardiolipin [13]	Kinetic mode (on/off rate) [19]	Kd [19]	other results
CC(C)=CCC[C@](C)(OC1O[C@H](CO)[C@@H](O)[C@H](O)[C@H]1O)C1CC[C@]2(C)C1[C@H](O)CC1[C@@]3(C)CC[C@H](O)C(C)(C)C3CC[C@]12C (stereo partly drawn) [CK, 20-O-β-(D-glucopyranosyl)-20(S)-protopanaxadiol, reference compound]	64.7 ± 9.3 µM	53.4 ± 2.4 µM	40.5 ± 0.9 µM	No significant change in body weight	almost no difference	67.1 ± 4.6 µM	64 ± 3.3 µM	59.1 ± 3.4 µM	73.6 ± 3.4 µM	63.1 ± 2.7 µM	42.3 ± 1.5 µM	no does-dependent response	stabilized	80.7 ± 3.7 µM	71.3 ± 7.1 µM	59.3 ± 2.8 µM	decreased significantly	fast on/off rate	55.7 µM	IC50 ([1]; Homo sapiens, NCI-H460, 72 h, read-out: Cytotoxicity IC50): 45.1 ± 0.4 µM; Cell viability with supplement of PG ([4]; A549, 100 μM): almost two-fold restored; Thermal stability of PRELID3b (CETSA) ([5]; 50 μM): stabilization; IC50 [7]: 43.6 ± 1.6 µM; IC50 [10]: 36.2 ± 1.2 µM; Formation of tube ([12]; 40 μM): inhibited; IC50 [14]: 49.8 ± 0.3 µM; Percentage of apoptotic cells ([15]; A549, 60 μM): significant increase in the percentage of apoptotic cells; Level of cytochrome c in cytosol ([16]; 50 μM): dramatically enhanced; Cytochrome c release with PG in medium ([16]; 50 μM): not observed; IC50 [17]: 46.2 ± 2.1 µM; Thermal stability of PRELID1 (CETSA) ([18]; 50 μM): stabilization
CC(=O)OCC1OC(OC(C)(CCC=C(C)C)C2CCC3(C)C2C(OC(C)=O)CC2C4(C)CCC(OC(C)=O)C(C)(C)C4CCC23C)C(OC(C)=O)C(OC(C)=O)C1OC(C)=O (centres unmarked) [CKD-1]	–	–	–	–	–	–	–	–	–	–	–	–	–	–	–	–	–	–	–	Solubility [20]: poor solubility; IC50 ([1]; read-out: Cytotoxicity IC50, NCI-H460 cells, 48 h (Table 2)): > 100 µM
COc1ccc(C2OCC3OC(OC(C)(CCC=C(C)C)C4CCC5(C)C4C(O)CC4C6(C)CCC(O)C(C)(C)C6CCC45C)C(O)C(O)C3O2)cc1 (centres unmarked) [CKD-4]	23.3 ± 1.4 µM	16.5 µM	15.4 ± 0.1 µM	No significant change in body weight	significant tumor volume inhibition	30.8 ± 3.7 µM	23.9 ± 0.9 µM	17.4 ± 1.2 µM	57.5 ± 0.6 µM	25.9 ± 4.4 µM	17.9 ± 2.8 µM	no does-dependent response	stabilized	43.7 ± 4.4 µM	25.1 ± 1.5 µM	20.3 ± 1.1 µM	decreased significantly	slower	5.3 µM	Cell viability with supplement of PG ([4]; A549, 12.5 μM): almost two-fold restored; Thermal stability of PRELID3b (CETSA) ([5]; 15 uM): stabilization; Cytotoxic potency in comparison with CK [21]: three-fold more potent; Suppression of cell viability ([22]; 20 μM, CellTiterGlo): less than 30%; Growth of patient derived organoid ([22]; 5, 10, 20, 35 and 50 μM): significantly inhibits the growth of patient derived organoid in a dose dependent manner; Amount of CK found in CKD-4 treated cells ([23]; 4 h): 1.33 % of total amount of CKD-4; Amount of CK found in CKD-4 treated cells ([23]; 24 h): 1.05 % of total amount of CKD-4; Formation of tube ([12]; 15 μM): inhibition is more obvious; Percentage of apoptotic cells ([15]; A549, 20 μM): significant increase in the percentage of apoptotic cells; Level of cytochrome c in cytosol ([16]; 15 μM): dramatically enhanced; Cytochrome c release with PG in medium ([16]; 15 μM): Reduced level of cytochrome c was released; Thermal stability of PRELID1 (CETSA) ([18]; 15 μM): stabilization; Kd smaller than Kd of CK [19]: ~7 fold
